Assay results: patent publication US20250152564A1, “PROPYLENE KETONE-CONTAINING BIOINHIBITOR, PREPARATION METHOD THEREFOR, AND USE THEREOF” (SHANGHAI HANSOH BIOMEDICAL CO., LTD., priority 2022, published 2025)

Key:
[1] = target: FGFR1 (Homo sapiens (Human), UniProt P11362); test: TR-FRET kinase inhibition assay, FGFR1; type: biochemical; details: ATP Km concentration (30 μM)
How it was run: (§1)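 Kinase-domain fragments in 50 mM HEPES pH 7.5 with 10 mM MgCl2, ATP at Km plus peptide substrate; 60 min reaction at room temperature, then EDTA/Eu-anti-phosphotyrosine (PT66) detection for 60 min (30 min for V564F). 11-point 3-fold dilutions from 1000 nM; IC50 from four-parameter fit of 665/620 nm ratio inhibition.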

[2] = Pharmacokinetic experiment in SD rats after oral administration; type: in vivo; details: 5 mg/kg, plasma; for AUC(0-t) / AUC(0-inf) / half-life / MRT / Cmax: male, Sprague-Dawley (SD), rat, po; for AUC(0-t): read-out: Area under the curve AUC0-t; for AUC(0-inf): read-out: Area under the curve AUC0-∞; for half-life: read-out: Half-life t1/2 (converted); for MRT: read-out: Mean residence time MRT; for Cmax: read-out: Plasma concentration Cmax; for Time to peak tmax: p.o.
[3] = system: NCI-H716 cells; test: CellTiter-Glo cell proliferation inhibition, NCI-H716; type: cell-based; details: Homo sapiens, 72 h, read-out: NCI-H716 cell proliferation inhibition rate IC50
Procedure: To evaluate inhibitory effects of the compounds on the proliferation of NCI-H716, SNU-16 and BaF3-FGFR2-BICC1 V564F cells by cell proliferation inhibition experiments.
CellTiter-Glo method was used to detect inhibitory effects of the compounds on the proliferation of NCI-H716, SNU-16 and BaF3 FGFR2-BICC1 V564F cells. The highest detection concentration of the compounds was 1000 nM, which was diluted in 3 folds, with a total of 9 concentrations (1000 nM to 0.15 nM). After the cells were plated at an appropriate density, compounds were added the next day and incubated for 72 h before detection using the […] detection kit.
(§2) 1) Inhibition rate (%): Inhibition rate %=[(mean value in positive control well−value in sample well)/(mean value in positive control well−mean value in negative control well)]×100, wherein the positive control well was a reaction well without a compound […], and the negative control well was a reaction wells without an enzyme.
(§3) 2) Curve fitting: Log(inhibitor) vs. response—Variable slope (four parameters) in GraphPad Prism 6 was used for fitting equation analysis of the compound concentration and the corresponding inhibition rate, and the curve was fitted to obtain the IC50 values of the compounds.

[4] = target: FGFR2 (Homo sapiens (Human), UniProt P21802); test: TR-FRET kinase inhibition assay, FGFR2; type: biochemical; details: ATP Km concentration (30 μM)
How it was run: as §1

[5] = target: FGFR2 V564F (Homo sapiens (Human), UniProt P21802, V564F); test: TR-FRET kinase inhibition assay, FGFR2 V564F; type: biochemical; details: ATP Km concentration (20 μM)
How it was run: as §1

[6] = system: BaF3 FGFR2-BICC1 V564F cells; test: CellTiter-Glo cell proliferation inhibition, BaF3 FGFR2-BICC1 V564F; type: cell-based; details: Mus musculus, 72 h, read-out: BaF3 FGFR2-BICC1 V564F inhibitory activity IC50
How it was run: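 Cells plated, compound added next day as 9-point 3-fold series from 1000 nM to 0.15 nM, incubated 72 h. Viability by CellTiter-Glo luminescence; IC50 from four-parameter variable-slope fit of percent inhibition.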

[7] = target: FGFR3 (Homo sapiens (Human), UniProt P22607); test: TR-FRET kinase inhibition assay, FGFR3; type: biochemical; details: ATP Km concentration (30 μM)
Procedure: To measure the IC50 values of the compounds against FGFR1, FGFR2, FGFR3, FGFR4, and FGFR2 V564F at ATP Km concentrations by TR-FRET method.
TR-FRET (time-resolved fluorescence resonance energy transfer) method was used to detect the inhibitory activity of the compounds on FGFR1, FGFR2, FGFR3, FGFR4, and FGFR2 V564F kinase region fragments. The highest detection concentration of the compounds in 5 kinase experiments was 1000 nM, which was diluted in 3 folds, with a total of 11 concentrations (1000 nM to 0.017 nM). A kinase buffer (50 mM HEPES pH 7.5, 1 mM EGTA, 10 mM MgCl2, 2 mM DTT, and 0.01% Tween-20) was used to prepare 4× enzyme solution, 4× compound solutions diluted in gradient, and a 2×ATP/Peptide substrate solution. To a 384-well plate, 2.5 μL of enzyme solution and 2.5 μL of diluted […] compound solution were added, and 5 μL of 2×ATP/Peptide substrate solution was then added. After reacting at room temperature for 60 minutes for FGFR1, FGFR2, FGFR3, and FGFR2 V564F kinases, and 120 minutes for FGFR4 kinase, 10 μL of a 2× termination and detection mixed liquid prepared with 1×LANCE detection buffer with an EDTA concentration of 20 mM and a Europium-anti-phosphotyrosine (PT66) concentration of 2 nM was added to each well of the plate. After reacting at room temperature for 60 minutes for FGFR1, FGFR2, FGFR3, and FGFR4, and 30 minutes for FGFR2 V564F, the fluorescence signal value in each well of the plate was measured by a microplate reader.
as §2, with “(%): Calculation was performed on the raw data (665 nm/620 nm reading ratio) according to the following formula to obtain the inhibition rate.” for “(%):”
as §3

Sequence of FGFR2 (P21802 481-770): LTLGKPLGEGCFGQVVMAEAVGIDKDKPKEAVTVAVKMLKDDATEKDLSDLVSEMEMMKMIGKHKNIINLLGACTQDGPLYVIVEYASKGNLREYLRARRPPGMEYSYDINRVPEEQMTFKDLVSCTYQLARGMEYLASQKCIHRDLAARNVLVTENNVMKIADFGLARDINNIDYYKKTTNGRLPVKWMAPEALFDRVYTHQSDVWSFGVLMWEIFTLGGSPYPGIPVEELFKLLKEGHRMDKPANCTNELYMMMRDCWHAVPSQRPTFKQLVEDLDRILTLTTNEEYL
Sequence of FGFR2 V564F (P21802 481-770 V564F): as the sequence (P21802 481-770) above, with V84F counted along it
Sequence of FGFR1 (P11362 478-767): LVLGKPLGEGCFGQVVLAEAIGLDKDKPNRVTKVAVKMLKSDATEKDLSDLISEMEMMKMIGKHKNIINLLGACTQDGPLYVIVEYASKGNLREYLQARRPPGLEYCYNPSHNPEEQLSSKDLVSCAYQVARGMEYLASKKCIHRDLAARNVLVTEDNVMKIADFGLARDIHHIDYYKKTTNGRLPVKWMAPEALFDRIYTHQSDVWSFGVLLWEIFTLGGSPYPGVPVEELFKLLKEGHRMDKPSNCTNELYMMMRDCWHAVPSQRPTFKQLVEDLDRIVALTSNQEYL
Sequence of FGFR3 (P22607 472-761): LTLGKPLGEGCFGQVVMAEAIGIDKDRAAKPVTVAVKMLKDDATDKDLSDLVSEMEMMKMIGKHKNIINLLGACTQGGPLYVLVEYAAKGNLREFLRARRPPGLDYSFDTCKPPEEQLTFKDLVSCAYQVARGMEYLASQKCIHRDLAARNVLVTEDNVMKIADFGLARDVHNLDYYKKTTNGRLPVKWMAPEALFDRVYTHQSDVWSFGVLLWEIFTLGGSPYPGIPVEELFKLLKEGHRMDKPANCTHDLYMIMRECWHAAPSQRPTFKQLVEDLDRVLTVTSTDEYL

| Compound | IC50 [1] [nM] | AUC(0-t) [2] [ng·h/mL] | AUC(0-inf) [2] [ng·h/mL] | half-life [2] [h] | MRT [2] [h] | Cmax [2] [ng/mL] | Time to peak tmax [2] [h] | IC50 [3] [nM] | IC50 [4] [nM] | IC50 [5] [nM] | IC50 [6] [nM] | IC50 [7] [nM] |
| --- | --- | --- | --- | --- | --- | --- | --- | --- | --- | --- | --- | --- |
| C=CC(=O)N1CC[C@H](n2nc(C#Cc3ccc4cn(CC)nc4c3)c3c(N)ncc(C(C)=O)c32)C1 [Example 85, (S)-1-(3-(7-acetyl-4-amino-3-((2-ethyl-2H-indazol-6-yl)alkynyl)-1H-pyrazolo[4,3-c]pyridin-1-yl)pyrrolidine-1-methyl)prop-2-en-1-one] | 2.1 | 1490 | 1490 | 0.5 | 2.39 | 394 | 0.5 | 0.96 | 0.4 | 0.5 | 0.4 | – |
| C=CC(=O)N1CC[C@H](n2nc(C#Cc3ccc4ccnn4c3)c3c(N)ncc(C(C)=O)c32)C1 [Example 71, (S)-1-(3-(7-acetyl-4-amino-3-(pyrazolo[1,5-a]pyridine-6-ethynylene)-1H-pyrazolo[4,3-c]pyridin-1-yl)pyrrolidine-1-methyl)prop-2-en-1-one] | 7.2 | – | – | – | – | – | – | 1.5 | 2 | 2.8 | 2.2 | 2.7 |
| C=CC(=O)N1CC[C@H](n2nc(C#Cc3ccc4c(c3)ncn4C)c3c(N)ncc(C(=O)CC)c32)C1 [Example 64, (S)-1-(3-(4-amino-3-((1-methyl-1H-benzo[d]imidazol-5-yl)ethynyl)-7-propionyl-1H-pyrazolo[4,3-c]pyridin-1-yl)pyrrolidin-1-yl)prop-2-en-1-one] | 6.3 | 3400 | 3430 | 0.9 | 2.58 | 866 | 2 | 1.8 | 1.4 | 0.6 | 1.9 | – |
| C=CC(=O)N1CC[C@H](n2nc(C#Cc3ccc4oc(C5CC5)nc4c3)c3c(N)ncc(C(C)=O)c32)C1 [Example 70, (S)-1-(3-(7-acetyl-4-amino-3-((2-cyclopropylbenzo[d]oxazol-5-yl)alkynyl)-1H-pyrazolo[4,3-c]pyridin-1-yl)pyrrolidine-1-methyl)prop-2-en-1-one] | 2.4 | 1510 | 1860 | 2.5 | 5.5 | 287 | 4 | 1.6 | 0.6 | 1.3 | 2.6 | – |
| C=CC(=O)N1CC[C@H](n2nc(C#Cc3ccc4c(c3)ncn4C3CC3)c3c(N)ncc(C(C)=O)c32)C1 [Example 37, (S)-1-(3-(7-acetyl-4-amino-3-((1-cyclopropyl-1H-benzo[d]imidazol-5-yl)ethynyl)-1H-pyrazolo[4,3-c]pyridin-1-yl)pyrrolidin-1-yl)prop-2-en-1-one] | 2.4 | – | – | – | – | – | – | 0.95 | 1 | 0.5 | 2 | 1.1 |
| C=CC(=O)N1CC[C@H](n2nc(C#Cc3ccc4c(c3)ncn4C3CC3)c3c(N)ncc(C(=O)C4CC4)c32)C1 [Example 38, (S)-1-(3-(4-amino-7-(cyclopropanecarbonyl)-3-((1-cyclopropyl-1H-benzo[d]imidazol-5-yl)ethynyl)-1H-pyrazolo[4,3-c]pyridin-1-yl)pyrrolidin-1-yl)prop-2-en-1-one] | 2.8 | 2230 | 2270 | 1.1 | 2.99 | 604 | 2 | 0.91 | 1.6 | 1 | 1.9 | – |
| C=CC(=O)N1CC[C@H](n2nc(C#Cc3cc4ncn(CC)c4cc3F)c3c(N)ncc(C(=O)CC)c32)C1 [Example 60, (S)-1-(3-(4-amino-3-((1-ethyl-6-fluoro-1H-benzo[d]imidazol-5-yl)ethynyl)-7-propionyl-1H-pyrazolo[4,3-c]pyridin-1-yl)pyrrolidin-1-yl)prop-2-en-1-one] | 4.7 | – | – | – | – | – | – | 2.19 | 0.9 | 0.4 | 1.7 | – |
| C=CC(=O)N1CC[C@H](n2nc(C#Cc3ccc4cn(C)nc4c3)c3c(N)ncc(C(=O)C4CC4)c32)C1 [Example 84, (S)-1-(3-(4-amino-7-(cyclopropanecarbonyl)-3-((2-methyl-2H-indazol-6-yl)ethynyl)-1H-pyrazolo[4,3-c]pyridin-1-yl)pyrrolidin-1-yl)prop-2-en-1-one] | 1 | – | – | – | – | – | – | 1.04 | 0.5 | 0.3 | 0.1 | – |
| C=CC(=O)N1CC[C@H](n2nc(C#Cc3cc4ncn(C)c4cc3Cl)c3c(N)ncc(C(=O)C4CC4)c32)C1 [Example 68, (S)-1-(3-(4-amino-3-((6-chloro-1-methyl-1H-benzo[d]imidazol-5-yl)ethynyl)-7-(cyclopropanecarbonyl)-1H-pyrazolo[4,3-c]pyridin-1-yl)pyrrolidin-1-yl)prop-2-en-1-one] | 2.4 | – | – | – | – | – | – | 1.42 | 1.4 | 0.3 | 0.5 | – |
| C=CC(=O)N1CC[C@H](n2nc(C#Cc3cc4ncn(CC)c4cc3F)c3c(N)ncc(C(C)=O)c32)C1 [Example 24, (S)-1-(3-(7-acetyl-4-amino-3-((1-ethyl-6-fluoro-1H-benzo[d]imidazol-5-yl)ethynyl)-1H-pyrazolo[4,3-c]pyridin-1-yl)pyrrolidin-1-yl)prop-2-en-1-one] | 3.6 | – | – | – | – | – | – | 2.09 | 0.7 | 0.4 | 0.8 | – |
| C=CC(=O)N1CC[C@H](n2nc(C#Cc3ccc4cn(C5CC5)nc4c3)c3c(N)ncc(C(C)=O)c32)C1 [Example 87, (S)-1-(3-(7-acetyl-4-amino-3-((2-cyclopropyl-2H-indazol-6-yl)ethynyl)-1H-pyrazolo[4,3-c]pyridin-1-yl)pyrrolidine-1-methyl)prop-2-en-1-one] | 1.6 | 2240 | 2240 | 0.5 | 2.38 | 534 | 2 | 1.31 | 0.5 | 0.6 | 0.3 | – |
| C=CC(=O)N1CC[C@H](n2nc(C#Cc3cc4ncn(C5CC5)c4cc3F)c3c(N)ncc(C(=O)C4CC4)c32)C1 [Example 49, (S)-1-(3-(4-amino-7-(cyclopropanecarbonyl)-3-((1-cyclopropyl-6-fluoro-1H-benzo[d]imidazol-5-yl)ethynyl)-1H-pyrazolo[4,3-c]pyridin-1-yl)pyrrolidin-1-yl)prop-2-en-1-one] | 3.9 | – | – | – | – | – | – | 1.92 | 1.3 | 1 | 0.4 | – |
